Data on two compounds can be found in US9096581B2, “Fluoroethyl thiamine or salts thereof and application thereof in preparation of anticoccidial drugs” (GUANGZHOU ORIGMOL FEED-ADDITIVE CO., LTD, priority 2012, dated 2015).

In the experiment the test system is Eimeria tenella GD strains. The experiment is described as follows: Comparison with other anticoccidial drugs in chickens infected with Eimeria tenella GD (Embodiment 3). Type of experiment: in vivo. Further details: oocyst value: scale not given here. Conditions: for number of oocysts in cecum / lesion value / average weight gain: 7th day; for lesion value: cecum, scale 0-40; for survival rate / average weight gain / bloody feces scoring: chickens; for bloody feces scoring: 5 days after infecting, score 0-4; for oocyst value: converted per Table 2; for relative weight gain rate: vs non-infected non-drug control. From the text:
1-day-old Lingnan yellow chickens, purchased from Poultry Research Unit, Bureau of Animal Husbandry, Guangdong Academy of Agricultural Sciences, bred under coccidium-free environment, and subjected to experiment after no coccidium oocyst is found in feces through microscopic examination when the chickens are 14 days old. Perfect compound feed for chickens: prepared by Huizhou Yuantai Feed Co. Ltd., and containing no antibacterial or anticoccidial additive.
Eimeria tenella GD strains, having no resistance to various anticoccidial drugs. Breeding and amplifying in one chicken before the experiment, collecting fresh oocysts, sporulating, and preserving at 4° C. for later use.
Weighing the 14-day-old experiment chickens one by one, rejecting emaciated chickens or overweighted chickens, selecting healthy chickens of which the individual body weight difference is within 20 g, and dividing into 6 groups with 30 chickens in each group. Groups 1 and 2 are respectively a non-drug-applied and non-coccidium-killed control group and a coccidium-infected and non-drug-applied control group, and Groups 3-6 are respectively added with different anticoccidial drugs according to Table 4. Feeding with feed containing different drugs on the day of experiment grouping, enabling the chickens to freely take in the feed, and feeding the chickens until the experiment ends.
Except the non-coccidium-infected and non-drug-applied control group, giving each experiment chicken in each experiment group with 2.5×10^5 eimeria tenella sporulated oocysts via the crop on next day of the grouping day. During experiment, observing and recording the spirit, appetite, bloody feces situation, death count and the like of the chickens every day. Performing bloody feces scoring on the chickens in each group 5 days after infecting. On the 7th day, respectively weighing all the chickens in each group, then autopsying them, observing cecum lesions and counting the oocysts in the cecum.
The evaluation standard is the same with Embodiment 2.

Consider `CO[C@@H]1[C@@H](OC)[C@H](C)[C@@](O)(CC(=O)O)O[C@H]1[C@H](C)[C@H]1O[C@@]2(CC[C@@](C)([C@H]3CC[C@@](C)([C@@H]4O[C@@H]([C@H]5O[C@](C)(O)[C@H](C)C[C@@H]5C)C[C@@H]4O[C@@H]4C[C@H](OC)[C@@H](OC)[C@H](C)O4)O3)O2)C[C@H](O)[C@H]1C` [maduramicin], for which, where the note is “5 ppm in feed”, the “anticoccidial index (ACI)” value is 186.7, the “number of oocysts in cecum” value is 1.265 ×10^6/chicken, the lesion value was 6 and the survival rate was found to be 100%. Besides, for the setting “5 ppm in feed”, the average weight gain is reported as 168.4 g/chicken, the bloody feces scoring is given as 0, the oocyst value worked out at 5 and the “relative weight gain rate” value is recorded as 97.7%.
For the compound `Cc1cc(C)nc(O)n1.O=C(Nc1ccc([N+](=O)[O-])cc1)Nc1ccc([N+](=O)[O-])cc1` [nicarbazin], under “125 ppm in feed”, the “anticoccidial index (ACI)” value is listed as 192.9, the “number of oocysts in cecum” value is on record as 0 ×10^6/chicken, the lesion value stood at 0 and the survival rate is recorded as 100%. Where the note is “125 ppm in feed”, the average weight gain is listed as 160.5 g/chicken, the bloody feces scoring is listed as 0, the oocyst value came to 0 and the “relative weight gain rate” value was 92.9%.
